{"source": "patent US20180325850A1", "about": "(The Regents of the University of Michigan, priority 2017, published 2018)", "type_in_all_cases": "in vivo, rat", "key": {"[1]": {"system": "MI rats generated by ischemia reperfusion", "assay": "Echocardiography of heart function (EF, FS) after ischemia reperfusion MI", "experimental": "24 h post coronary ligation, a MI size of 33.59±3.54% of the left ventricle was induced in rats. […] Left ventricular internal diameter end diastole (LVIDd) and end systole (LVIDs) were measured perpendicularly to the long axis of the ventricle. EF and FS were calculated according to LVIDd and LVIDs."}, "[2]": {"system": "MI rats generated by ischemia reperfusion", "assay": "Myocardial infarct size by triphenyltetrazolium chloride (TTC) staining", "conditions": "two shots of VPA within 24 h of IR injury; versus saline controls", "experimental": "Myocardial infarct size was determined by triphenyltetrazolium chloride (TTC) staining. The hearts were frozen rapidly and sliced into five 2 mm transverse sections. The sections were incubated at 37° C. with 1% TTC in phosphate buffer (pH 7.4) for 10 min, fixed in 10% formaldehyde solution, photographed and calculated using ImageJ software. The infarct size was expressed as a percentage of infarct volume versus left ventricle volume."}, "IR rats [3]": {"system": "IR rats", "assay": "Plasma biochemical assay of LDH and creatine kinase (MI injury biomarkers)", "conditions": "24 h after VPA treatment", "procedure": "To determine the possible protective effect of VPA after MI, MI rats were generated by ischemia reperfusion and VPA was administrated to the animals. […] Intra-peritoneal injection of 250 mg/kg VPA was conducted immediately after and 12 h after coronary ligation. Heart functional assays, MI assessment, and physiological assays were performed 24 h after VPA administration."}, "IR rats [4]": {"system": "IR rats", "assay": "Long-term (4-week) oral VPA treatment of IR rats, EF and FS", "conditions": "oral VPA 250 mg/kg twice daily for 4 weeks, versus IR control animals", "procedure": "In addition, long-term (4-week) treatment of VPA was performed to IR rats."}, "Foxm1": {"system": "Foxm1", "assay": "RNA-seq of whole hearts one day after IR", "source_text": "Recent studies indicate that neonatal CMs proliferate much more potently than adult CMs and Foxm1 appears to be a key factor in regulating neonatal CM proliferation by controlling Igf1 and cell cycle genes (Ref. 44; incorporated by reference in its entirety). […] These genes are mostly proliferation related genes. Other potential targets include anti-oxidative, pro-fibrotic, and CM structural genes. Foxm1 has also been reported to work with YAP1 to activate proliferation genes (Ref. 46; incorporated by reference in its entirety)."}, "[5]": {"conditions": "IR rats, 250 mg/kg VPA intra-peritoneal immediately after and 12 h after coronary ligation, echocardiography at 24 h"}}}
{"smiles": "CCCC(CCC)C(=O)O", "note": "[VPA, valproic acid]", "values": [{"measurement": "fractional shortening (FS)", "setting": "[1]; [5]", "result": "33.21±4.46", "unit": "%"}, {"measurement": "left ventricle ejection fraction (EF)", "setting": "[1]; [5]", "result": "60.60±6.18", "unit": "%"}, {"measurement": "rescue of the functional loss caused by acute IR injury", "setting": "[1]; VPA treatment within 12 h of IR injury, from EF and FS", "result": "roughly 50%"}, {"measurement": "reduction of infarct size", "setting": "[2]", "result": "around 45%"}, {"measurement": "plasma LDH release", "setting": "IR rats [3]", "result": "63.07±23.83", "unit": "U/L"}, {"measurement": "plasma creatine kinase (CK) release", "setting": "IR rats [3]", "result": "158.31±43.53", "unit": "U/L"}, {"measurement": "effect on ventricular remodeling and pumping function (EF, FS)", "setting": "IR rats [4]", "result": "protected the MI hearts from ventricular remodeling and weakening of the pumping function"}, {"measurement": "Foxm1 expression, IR+VPA group versus no IR group", "setting": "Foxm1", "result": 8, "unit": "fold"}]}
